# Reference: patent US9840507B2, “5,6-dihydro-imidazo[1,2-a]pyrazin-8-ylamine derivatives useful as inhibitors of beta-secretase (BACE)” (Janssen Pharmaceutica, NV, priority 2010, dated 2017)
# Like-named read-outs stand apart in the source and are kept apart here.
# Experiments:
# [1] = system: Aβtotal produced and secreted into the medium of human neuroblastoma SKNBE2 cells; experiment: Cellular αlisa assay in SKNBE2 cells, Aβtotal; format: cell-based; details: for IC50: Homo sapiens, SKNBE2, 18 h, read-out: Cellular αlisa assay in SKNBE2 cells Aβtotal pIC50 (converted)
# Experimental: (§1) In two αlisa assays the levels of Aβtotal and Aβ42 produced and secreted into the medium of human neuroblastoma SKNBE2 cells are quantified. The assay is based on the human neuroblastoma SKNBE2 expressing the wild type Amyloid Precursor Protein (hAPP695). The compounds are diluted and added to these cells, incubated for 18 hours and then measurements of Aβ42 and Aβtotal are taken. Aβtotal and Aβ42 are measured by sandwich αlisa. αlisa is a sandwich assay using biotinylated antibody AbN/25 attached to streptavidin coated beads and antibody Ab4G8 or cAb42/26 conjugated acceptor beads for the detection of Aβtotal and Aβ42 respectively. In the presence of Aβtotal or Aβ42, the beads come into close proximity. The excitation of the Donor beads provokes the release of singlet oxygen molecules that triggers a cascade of energy transfer in the Acceptor beads, resulting in light emission. Light emission is measured after 1 hour incubation (excitation at […] and emission at 615 nm).
# (§2) A best-fit curve is fitted by a minimum sum of squares method to the plot of % Controlmin versus compound concentration.
# (§3) LC=Median of the low control values
# (§4) =Low control: cells preincubated without compound, without biotinylated Ab in the αlisa
# (§5) HC=Median of the High control values
# (§6) =High Control: cells preincubated without compound % Effect=100−[(sample−LC)/(HC−LC)*100] % Control=(sample/HC)*100% % Controlmin=(sample−LC)/(HC−LC)*100
# [2] = system: Aβ42 produced and secreted into the medium of human neuroblastoma SKNBE2 cells; experiment: Cellular αlisa assay in SKNBE2 cells, Aβ42; format: cell-based; details: for IC50: Homo sapiens, SKNBE2, 18 h, read-out: Cellular αlisa assay in SKNBE2 cells Aβ42 pIC50 (converted)
# Experimental: as §1, §2, §3, §4, §5, §6
# [3] = biological target: T1, recombinant BACE1 protein (Homo sapiens, UniProt P56817); experiment: Biochemical FRET based assay; details: recombinant BACE1 1 μg/ml, 10 μm substrate, 120 minutes, room temperature, pH 5.0; for IC50: read-out: Biochemical FRET based assay pIC50 (converted)
# T1 construct: recombinant BACE1 protein in a final concentration of 1 μg/ml
# Excerpt: This assay is a Fluorescence Resonance Energy Transfer Assay (FRET) based assay. The substrate for this assay is an APP derived 13 amino acids peptide that contains the ‘Swedish’ Lys-Met/Asn-Leu mutation of the amyloid precursor protein (APP) β-secretase cleavage site. This substrate also contains two fluorophores: (7-methoxycoumarin-4-yl) acetic acid (Mca) is a fluorescent donor with excitation wavelength at 320 nm and emission at 405 nm and 2,4-Dinitrophenyl (Dnp) is a proprietary quencher acceptor. […] Upon cleavage by BACE1, the fluorophore Mca is separated from the quenching group Dnp, restoring the full fluorescence yield of the donor. The increase in fluorescence is linearly related to the rate of proteolysis (Koike H et al. J. Biochem. 1999, 126, 235-242).
# Briefly in a 384-well format recombinant BACE1 protein in a final concentration of 1 μg/ml is incubated for 120 minutes at room temperature with 10 μm substrate in incubation buffer (40 mM Citrate buffer pH 5.0, 0.04% PEG, 4% DMSO) in the absence or presence of compound. Next the amount of proteolysis is directly measured by fluorescence measurement at T=0 and T=120 (excitation at 320 nm and emission at 405 nm).
# as §3
# =Low control: Reaction without enzyme
# as §5
# =High Control: Reaction with enzyme % Effect=100−[(sample−LC)/(HC−LC)*100] % Control=(sample/HC)*100% % Controlmin=(sample−LC)/(HC−LC)*100
# [4] = SKNBE2 cells expressing hAPP695, incubated for 18 hours
# T1 sequence (P56817 46-501): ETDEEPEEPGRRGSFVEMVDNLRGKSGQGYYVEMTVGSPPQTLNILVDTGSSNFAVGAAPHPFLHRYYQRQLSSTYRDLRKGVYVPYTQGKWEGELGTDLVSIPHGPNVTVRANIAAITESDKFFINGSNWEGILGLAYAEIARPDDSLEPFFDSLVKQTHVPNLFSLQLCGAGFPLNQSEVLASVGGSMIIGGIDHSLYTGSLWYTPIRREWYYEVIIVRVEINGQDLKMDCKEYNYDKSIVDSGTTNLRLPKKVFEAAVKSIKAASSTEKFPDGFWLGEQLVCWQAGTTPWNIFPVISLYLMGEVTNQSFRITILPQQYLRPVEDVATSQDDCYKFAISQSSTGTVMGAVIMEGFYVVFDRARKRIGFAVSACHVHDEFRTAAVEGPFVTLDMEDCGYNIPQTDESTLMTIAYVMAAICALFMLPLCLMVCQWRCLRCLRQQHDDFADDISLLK
"IC50 [1, 4] [nM]","IC50 [2, 4] [nM]",IC50 [3] [nM],"Cellular αlisa assay in SKNBE2 cells Aβtotal pIC50 [1, 4]","Cellular αlisa assay in SKNBE2 cells Aβ42 pIC50 [2, 4]",Biochemical FRET based assay pIC50 [3],Compound,IC50 [1] [nM],IC50 [2] [nM]
117,120,178,,,,Cc1nc(C(=O)Nc2ccc(F)c([C@]3(C)Cn4cc(C(F)(F)F)nc4C(N)=N3)c2)c(C)o1 [Compound 41],,
21.9,20.9,83.2,,,,"C[C@@]1(c2cc(NC(=O)c3ccc(F)cn3)ccc2F)Cn2cc(C#N)nc2C(N)=N1 [Compound 56, (R)—N-{3-[8-amino-2-cyano-6-methyl-5,6-dihydroimidazo[1,2-a]pyrazin-6-yl]-4-fluorophenyl}-5-fluoropyridine-2-carboxamide]",,
20,20,75.9,,,,C[C@@]1(c2cc(NC(=O)c3ccc(F)cn3)ccc2F)Cn2c(Cl)cnc2C(N)=N1 [Compound 58],,
17,21.9,46.8,,,,C[C@@]1(c2cc(NC(=O)c3ncc(Cl)cc3Cl)ccc2F)Cn2cc(C(F)(F)F)nc2C(N)=N1 [Compound 25],,
,,589,6.11,6.05,,NC1=NC(c2cc(NC(=O)c3ccc(F)cn3)ccc2F)(C(F)F)Cn2ccnc21 (stereo not drawn) [Compound 27],,
9.33,8.51,97.7,,,,C[C@@]1(c2cc(NC(=O)c3ccc(C#N)cn3)ccc2F)Cn2cc(C(F)F)nc2C(N)=N1 [Compound 49],,
14.8,13.5,66.1,,,,COc1cnc(C(=O)Nc2ccc(F)c([C@]3(C)Cn4c(Cl)cnc4C(N)=N3)c2)cn1 [Compound 57],,
17.8,17.4,75.9,,,,C[C@@]1(c2cc(NC(=O)c3ncc(Cl)cc3F)ccc2F)Cn2ccnc2C(N)=N1 [Compound 20],,
38,40.7,97.7,,,,COc1cnc(C(=O)Nc2ccc(F)c([C@]3(C)Cn4cc(Cl)nc4C(N)=N3)c2)cn1 [Compound 52],,
2400,2750,20000,,,,"CC1(c2cc(-c3cncnc3)ccc2F)Cn2ccnc2C(N)=N1 (single isomer, unassigned) [Compound 7]",,
83.2,89.1,380,,,,Cc1nc(C(=O)Nc2ccc(F)c([C@]3(C)Cn4ccnc4C(N)=N3)c2)c(C)o1 [Compound 46],,
91.2,87.1,229,,,,C[C@@]1(c2cc(NC(=O)c3ccsn3)ccc2F)Cn2cc(C(F)(F)F)nc2C(N)=N1 [Compound 40],,
41.7,42.7,100,,,,Cc1nc(C(=O)Nc2ccc(F)c([C@]3(C)Cn4cc(C(F)(F)F)nc4C(N)=N3)c2)co1 [Compound 38],,
8.51,9.55,95.5,,,,C[C@@]1(c2cc(NC(=O)c3ncc(C#N)cc3F)ccc2F)Cn2ccnc2C(N)=N1 [Compound 22],,
32.4,31.6,112,,,,COc1cnc(C(=O)Nc2ccc(F)c([C@]3(C)Cn4cc(Br)nc4C(N)=N3)c2)cn1 [Compound 55],,
8.13,7.41,58.9,,,,C[C@@]1(c2cc(NC(=O)c3ccc(Cl)cn3)ccc2F)Cn2cc(C(F)F)nc2C(N)=N1 [Compound 50],,
42.7,38,186,,,,Cc1nc(C(=O)Nc2ccc(F)c([C@]3(C)Cn4ccnc4C(N)=N3)c2)co1 [Compound 43],,

"IC50 [1, 4] [nM]","IC50 [2, 4] [nM]",IC50 [3] [nM],"Cellular αlisa assay in SKNBE2 cells Aβtotal pIC50 [1, 4]","Cellular αlisa assay in SKNBE2 cells Aβ42 pIC50 [2, 4]",Biochemical FRET based assay pIC50 [3],Compound,IC50 [1] [nM],IC50 [2] [nM]
2340,2140,,,,>4.52,"COc1cncc(-c2cccc(C3(C)Cn4ccnc4C(N)=N3)c2)c1 (racemic) [Compound 2, rac-6-[3-(5-methoxy-pyridin-3-yl)-phenyl]-6-methyl-5,6-dihydro-imidazo[1,2-a]pyrazin-8-ylamine]",,
69.2,70.8,331,,,,"CC1(c2cccc(NC(=O)c3ccc(Cl)cn3)c2)Cn2ccnc2C(N)=N1 (racemic) [Compound 6, rac-5-chloro-pyridine-2-carboxylic acid [3-(8-amino-6-methyl-5,6-dihydro-imidazo[1,2-a]pyrazin-6-yl)-phenyl]-amide]",,
1950,2340,16600,,,,"CC1(c2cc(-c3cncnc3)c(F)cc2F)Cn2ccnc2C(N)=N1 (single isomer, unassigned) [Compound 11]",,
,,295,6.19,6.17,,NC1=NC(c2cc(NC(=O)c3ccc(F)cn3)ccc2F)(C(F)F)Cn2ccnc21 (stereo not drawn) [Compound 28],,
37.2,25.1,457,,,,CCOc1cnc(C(=O)Nc2ccc(F)c([C@]3(C)Cn4ccnc4C(N)=N3)c2)cn1 [Compound 23],,
11,12.3,,,,,"CC1(c2cc(NC(=O)c3ccc(Cl)cn3)ccc2F)Cn2ccnc2C(N)=N1 (single isomer, unassigned) [Compound 8]",,
16.6,17.4,107,,,,COc1ccc(C(=O)Nc2ccc(F)c([C@]3(C)Cn4ccnc4C(N)=N3)c2)nc1 [Compound 17],,
72.4,85.1,234,,,,COc1cnc(C(=O)Nc2ccc(F)c([C@]3(C)Cn4cc(C(F)(F)F)nc4C(N)=N3)c2)cn1 [Compound 26],,
158,158,269,,,,Cc1nc(C(=O)Nc2ccc(F)c([C@]3(C)Cn4cc(C(F)(F)F)nc4C(N)=N3)c2)c(C(F)(F)F)o1 [Compound 39],,
16.6,15.8,,,,,C[C@@]1(c2cc(NC(=O)c3ccn(C(F)F)n3)ccc2F)Cn2cc(C(F)(F)F)nc2C(N)=N1 [Compound 37],,
2190,2340,18600,,,,"CC1(c2cc(-c3cncc(Cl)c3)c(F)cc2F)Cn2ccnc2C(N)=N1 (single isomer, unassigned) [Compound 12]",,
93.3,95.5,380,,,,Cc1nc(C(=O)Nc2ccc(F)c([C@]3(C)Cn4ccnc4C(N)=N3)c2)c(C(F)(F)F)o1 [Compound 44],,
275,355,224,,,,NC1=NC(c2cc(NC(=O)c3ncc(Cl)cc3F)ccc2F)(C(F)F)Cn2ccnc21 (stereo not drawn) [Compound 33],,
7760,7760,,,,>4.52,"C[C@@]1(c2cccc(-c3cncnc3)c2)Cn2ccnc2C(N)=N1 [Compound 4, (R)-6-methyl-6-(3-pyrimidin-5-yl-phenyl)-5,6-dihydro-imidazo[1,2-a]pyrazin-8-ylamine]",,
,,162,,,,C[C@@]1(c2cc(NC(=O)c3ccn(C(F)F)n3)ccc2F)Cn2cc(C(F)F)nc2C(N)=N1 [Compound 51],,
,,63.1,,,,"C[C@@]1(c2cc(NC(=O)c3ccc(F)cn3)ccc2F)Cn2c(C#N)cnc2C(N)=N1 [Compound 66, (R)—N-{3-[8-amino-3-cyano-6-methyl-5,6-dihydroimidazo[1,2-a]pyrazin-6-yl]-4-fluorophenyl}-5-fluoropyridine-2-carboxamide]",,

Compound,"IC50 [1, 4] [nM]","IC50 [2, 4] [nM]",IC50 [3] [nM],"Cellular αlisa assay in SKNBE2 cells Aβtotal pIC50 [1, 4]","Cellular αlisa assay in SKNBE2 cells Aβ42 pIC50 [2, 4]",Biochemical FRET based assay pIC50 [3],IC50 [1] [nM],IC50 [2] [nM]
"CC1(c2cccc(-c3cc(Cl)cc(Cl)c3)c2)Cn2ccnc2C(N)=N1 (racemic) [Compound 3, rac-6-(3′,5′-dichloro-biphenyl-3-yl)-6-methyl-5,6-dihydro-imidazo[1,2-a]pyrazin-8-ylamine]",,,26900,,,,7080,7940
"C[C@@]1(c2cccc(-c3cc(Cl)cc(Cl)c3)c2)Cn2ccnc2C(N)=N1 [Compound 5, (R)-6-(3′,5′-dichloro-biphenyl-3-yl)-6-methyl-5,6-dihydro-imidazo[1,2-a]pyrazin-8-ylamine]",,,14100,,,,5010,5890
